Reference: patent publication US20100004171A1, “Therapeutic Methods for Neuropathic Pain” (priority 2006, published 2010)

Tests used:
[1] = tested on: agrin mRNA; assay: RT-PCR of agrin gene expression (C-terminal primers) in L3-5 spinal cord; format: in vivo, rat
Method: Gene expression alterations after the nerve injury: Gene expression for amino(“N”)- and carboxy(“C”)-terminal halves of agrin was analyzed from L3-5 spinal cord of the rats (sacrificed at 2 hr, 24 hr, 3 days, and 7 days post surgery), using RT-PCR and real-time PCR. The differences in gene expression between sham-operated and nerve-injured groups were compared.
Total RNA extraction: The rats were deeply anesthetized with isoflurane and decapitated. The spinal cord from L3-5 was quickly removed and immediately put into a tube containing TRIzol® (2 ml, Invitrogen, Carlsbad, Calif.). The tissue was homogenized with IKA® T8 homogenizer (IKA®, Staufen, Germany) for 2 min, allowed to stand at room temperature for 3 min, and 0.4 ml chloroform added. The tube was vortexed and centrifuged at 12,000×g for 15 min. The water phase was transferred to a clean tube without any contamination from other phases. Then 1 ml isopropanol was added to the water phase, and the mixture allowed to stand for 10 min at room temperature. The tube was centrifuged for 10 min at 12,000×g. The supernatant was discarded, and the pellet washed with 1 ml 70% ethanol. The ethanol was discarded, and the RNA was re-dissolved in 30 μl nucleotide-free water. A 1 μl aliquot was taken and reserved to dilute 20-fold for RNA quality control. […]
[…]. Changes in agrin gene induced by the injected drug was analyzed and compared.

[2] = Solubility for intrathecal injection; format: physicochemical
Method: The maximum volume injected at any one time was 10 μl.^[79]

[3] = tested on: agrin protein; assay: Western blot of agrin protein in L3-5 spinal cord; format: in vivo, rat
Method: Western blot for detecting protein expression of agrin: Agrin protein was analyzed from L3-5 spinal cord with Western blot as described below at times of 1 day, 3 days, and 7 days post-surgery. The changes in these proteins between sham-operated, nerve-injured (no drug), and nerve-injured (pre-emptive drug) groups were analyzed.
Agrin Protein Extraction: The rats were deeply anesthetized with isoflurane and decapitated. Spinal cord L3-5 was quickly removed and immediately placed into tissue lysis buffer (1 ml, Sigma Co., St. Louis, Mo.) that contained protein enzyme inhibitors (1:100, Halt, Pierce). The tissue was homogenized for 2 min and incubated on ice for 45 min. The sample was then centrifuged at 10,000×g for 30 min at 4° C. The supernatant was transferred to a new tube and centrifuged again for further clarifying. The concentration of the protein was determined by an Agilent's Bio-Rad protein chip (Agilent's 2100 bioanalyzer, Santa Clara, Calif.) and by the […] (reagents from Bio-Rad).
Western blot: Protein (20 μg) from each sample was mixed with 2× electrophoresis buffer and boiled for 5 min. The samples, along with a negative control, were loaded on 4-15% acrylamide tris-glycine SDS gels and electrophoresed in a cell (Bio-Rad) for approximately 1 hr. A Hybond-P polyvinylidene difluoride membrane (Bio-Rad, Hercules, Calif.) was used for transferring the protein in a mini-trans-blot transfer cell (Bio-Rad) for 2 hr. The membrane was then soaked in 2% milk for 1 hour and probed with monoclonal agrin antibody (Agr510 and Agr530, 1:5000, StressGen Biotechnologies Corp., Victoria, Canada) or β-actin antibody (1:5000) at 4° C. overnight with continual shaking. The following day goat anti-mouse secondary antibody conjugated to Alexa Fluor680 (1:5000, Molecular Probe) was added to the membrane and incubated for 1 hr at room temperature. The samples were washed three times with TBS buffer (Tris Buffered Saline, DAKO, Carpinteria, Calif.) between steps. The membrane was then scanned with an Odyssey (LI-COR) scanner and analyzed by Odyssey software (Li-Cor, Lincoln, Nebr.).
In rats with tactile allodynia (a withdrawal threshold with a filament below 8 g), an intrathecal catheter (PE 10) was installed and linked to an osmotic pump (Alzet) in a 37° C. water bath. Following a bolus injection of SCP-1 (30 nmol/kg, 10 μl), agrin siRNA (100 nM) was intrathecally administered continuously by the pump at a rate of 5 μl/1 hour for 4 hr. The animals were subjected to von Frey filament test every 15 min for 4 hr to determine whether the effects of SCP-1 on allodynia suppression are blocked by agrin siRNA. A control siRNA (nFsiRNA) was applied in the same way. The behavioral data was analyzed for agrin effects. […]

[4] = tested on: Bennett model rats with hyperalgesia and allodynia; settings: intrathecally, 30 nmol/kg; cited from earlier work
[5] = tested on: rodents; settings: orally to rodents, 3.7 mmol/kg to 36 mmol/kg; cited from earlier work

Structure (SMILES): O=C(CN1C(=O)c2ccccc2S1(=O)=O)Nc1ccc(O)cc1 [SCP-1]
- agrin mRNA ([1]; allodynic rats, intrathecal injection 7 days post injury, one- and two-hour post injection): increased
- agrin mRNA ([1]; pre-emptive intrathecal injection prior to CCI, 3 and 7 days post-injury): did not show a decrease in agrin mRNA
- solubility in 45% 2-hydroxypropyl-α-cyclodextrin in saline ([2]; 45% cyclodextrin in saline, 10 mM solutions prepared): can dissolve them
- solubility in water ([2]; water): do not dissolve readily in water
- agrin protein level ([3]; allodynic rats, 2 h post-SCP-1 injection): up-regulated to a normal level
- agrin protein ([3]; pre-emptive intrathecal injection prior to CCI, 3 and 7 days): did not decrease
- effect on allodynia and hyperalgesia [4]: depressed the signs of allodynia and hyperalgesia
- toxicity after oral dosing [5]: the animals were still moving normally
